Usually MIC50 stands for the lowest concentration that inhibits either 50% of growth or 50% of the strains tested, depending on the study.

The text below walks through data of patent US10758513B2, “Modulators of mitochondrial protein import” (THE REGENTS OF THE UNIVERSITY OF CALIFORNIA, priority 2011, dated 2020).

Data set [1] relates to tim10-1 tim9S mitochondria. The experiment in a line: Respiration (oxygen electrode) of tim10-1 tim9S mitochondria. The class given is biochemical, yeast. As to conditions: NADH; 25 μM MitoBloCK-1; CCCP as control. The procedure: Oxygen consumption of […] mitochondria was measured using methods previously described (8). Briefly, purified […] mitochondria aliquots (25 mg/mL) were thawed on ice and tested within 2 hours. A Clark-type oxygen electrode in a stirred, thermostatically controlled 1.5-ml chamber at 25° C. (Oxytherm; Hansatech) facilitated measurement. […] Consumption rate was monitored for approximately 2 min.

Another data set deals with tim23 mutant. Put plainly: Yeast growth inhibition (MIC50), tim23 mutant. The class given is cell-based. Particulars: Saccharomyces cerevisiae; disrupted for prd5 and snq2.
The subject of another data set is mouse liver mitochondria. Put plainly: Import of radiolabeled precursors into isolated mouse liver mitochondria. The class given is biochemical. On the set-up: import of AAC: dose or concentration left out as unconfirmed. On the procedure: Mitochondria were purified from yeast cells grown in YPEG or selective SEG medium as described in previous studies (Glick B S, Pon L A (1995). Methods Enzymol 260:213-223). Yeast cultures were kept at a constant 25° C. with vigorous shaking during growth. After concentration was measured by BCA assay, mitochondria were stored in 25 mg/ml aliquots at −80° C. Mammalian mitochondria were isolated from 2-4 freshly excised mouse livers by differential centrifugation. Briefly, isolated livers were washed 3× with cold PBS and then suspended in 4-5 mL isolation buffer (70 mM Sucrose, 220 mM mannitol, 2rnM HEPES-KOH, pH 7.4) per gram of tissue. Livers were first chopped into small pieces and then dounced 5× using a teflon dounce. Homogenized material was then centrifuged at 1,000 RPM for […] in a clinical centrifuge and supernatants were transferred to fresh tubes. Centrifugation at 1,000 RPM for 10 min was then repeated and supernatants were transferred to microfuge tubes. Next, supernatant material was spun for 10 min at 800×g (this process was repeated a second time). The supernatants from these steps were subjected to a high-speed (12,000×g for 20 min) spin to pellet heavy membrane fractions. Pellets were washed in isolation buffer and spun again (12,000×g for 20 min). After the final centrifugation step, supernatants were discarded and heavy membrane fraction was resuspended in mammalian import buffer (250 mM sucrose, 5 mM magnesium acetate, 80 mM potassium acetate, 10 mM sodium succinate, 1 mM dithiothreitol, 0.1 mM ADP, 20 mM Hepes-KOH, pH 7.4) as described in Johnston A J, et al. (2002), J Biol Chem 277:42197-42204 and kept on ice. All subsequent imports were performed within 1 hour of isolation of mammalian mitochondria. Mitochondrial concentrations were determined by BCA assay.
Prior to import into purified mitochondria, ^35S-methionine and cysteine labeled proteins were generated with TNT Quick Coupled Transcription/Translation kits (Promega) and plasmids carrying the gene of interest. Transcription of genes was driven by either a T7 or SP6 promoter. […]

A further data set relates to zebrafish embryos. The experiment in a line: Zebrafish embryo development. The class given is in vivo. On the procedure: Zebrafish used for o-dianisidine staining of red blood cells in DMSO and MitoBloCK-6 treated fish were albino lines generated from crosses of TL and TU fish. Line AB were injected with the ALR morpholino. Lines were maintained in a 14-hr light/10-hr dark cycle and mated for one hour to obtain synchronized embryonic development. […] Following treatment, embryos were imaged using a Leica MZ16F fluorescent stereoscope (TexasRed filter set) at 5× magnification. […] Embryos were allowed to mature to 2 dpf and then imaged like the MitoBloCK-6 treated embryos; embryos were imaged at day 2 because of concerns with morpholino dilution. Images were resized to 300 dpi without resampling using Adobe Photoshop software.

With `NC(=S)N/N=C/c1c(O)c(Br)cc2oc3c(c12)CCCC3` [MitoBloCK-1], the rate of respiration entry in data set [1] was “did not significantly alter the rate of respiration”. The compound further gave an MIC50 in the data set on tim23 mutant greater than 200 µM. For the same compound, in the data set on mouse liver mitochondria, the “import of AAC” value was “inhibited”, the “import of Hsp60” value is on record as “not altered” and the “import of Su9-DHFR” value was “not altered”.

`Oc1c(Cl)cc(Cl)cc1/C=N/c1ccc(Nc2ccccc2)cc1` [MitoBloCK-6]: the toxicity to fish entry with zebrafish embryos (concentrations higher than 2.5 μM) is on record as “toxic to the fish”. The compound also returned a decreased heart rate in the data set on zebrafish embryos (embryos treated with MitoBloCK-6 or ALR morpholino) of 50%.
